Experimental data taken from US20080009418A1, “Selective Inhibitors” (Alchemia LTD., priority 2004, published 2008).

Columns and labels:
Human opioid (ORL1) = biological target: T1, Human opioid (ORL1) (Homo sapiens, UniProt P41146); test: Radioligand binding, human opioid ORL1 membranes, FlashPlate, [125I]-Nociceptin; conditions: compound at 10 μM, [125I]-Nociceptin
T1 construct: purchased Perkin Elmer Biosignal
In short: (§1)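 Cloned human receptor membranes were coated onto FlashPlate wells and incubated with radioligand and compound (added from a 0.5 mM DMSO daughter plate) for 1 hour at room temperature in the dark. Scintillation counting gave percent inhibition, with DMSO defining total and reference ligand defining non-specific binding.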

[1] = biological target: T2, Human neuropeptide Y (NPY-Y1) (Homo sapiens, UniProt P25929); test: Radioligand binding, human neuropeptide Y NPY-Y1 membranes, FlashPlate, [125I]-PYY; conditions: compound at 10 μM, [125I]-PYY
T2 construct: purchased Perkin Elmer Biosignal
T2 sequence (P25929 1-384): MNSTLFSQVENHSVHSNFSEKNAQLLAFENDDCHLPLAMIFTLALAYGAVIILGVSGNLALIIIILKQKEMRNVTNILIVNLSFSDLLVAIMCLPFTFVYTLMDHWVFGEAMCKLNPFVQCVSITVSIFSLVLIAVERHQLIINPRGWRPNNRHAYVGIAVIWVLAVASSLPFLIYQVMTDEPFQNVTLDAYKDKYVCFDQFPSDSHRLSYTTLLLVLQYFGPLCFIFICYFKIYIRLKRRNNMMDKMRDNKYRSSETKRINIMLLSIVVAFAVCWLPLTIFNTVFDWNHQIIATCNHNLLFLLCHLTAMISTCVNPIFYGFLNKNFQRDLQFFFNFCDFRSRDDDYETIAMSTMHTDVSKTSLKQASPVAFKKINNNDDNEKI
In short: as §1

Human δ-opioid (DOP) = biological target: T3, Human δ-opioid (DOP) (Homo sapiens, UniProt P41143); test: Radioligand binding, human δ-opioid (DOP) membranes, FlashPlate, [3H]-Bremazocine; conditions: compound at 10 μM, [3H]-Bremazocine
T3 construct: purchased Perkin Elmer Biosignal
T3 sequence (P41143 whole entry): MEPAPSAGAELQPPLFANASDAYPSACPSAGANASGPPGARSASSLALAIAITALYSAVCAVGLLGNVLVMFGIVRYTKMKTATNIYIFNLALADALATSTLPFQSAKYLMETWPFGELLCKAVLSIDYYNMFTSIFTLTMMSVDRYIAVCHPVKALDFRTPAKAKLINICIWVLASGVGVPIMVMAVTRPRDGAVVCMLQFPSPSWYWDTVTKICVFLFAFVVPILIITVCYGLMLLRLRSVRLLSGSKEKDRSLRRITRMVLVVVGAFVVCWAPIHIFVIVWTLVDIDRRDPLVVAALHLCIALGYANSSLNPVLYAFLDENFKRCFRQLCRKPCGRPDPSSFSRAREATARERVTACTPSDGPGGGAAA
In short: as §1

Mouse urotensin (mUR2) = biological target: T4, Mouse urotensin (mUR2) (Mus musculus, UniProt Q8VIH9); test: Radioligand binding, mouse urotensin mUR2 membranes, FlashPlate, [125I]-Urotensin II; conditions: compound at 10 μM, [125I]-Urotensin II
T4 construct: purchased Perkin Elmer Biosignal
T4 sequence (Q8VIH9 1-385): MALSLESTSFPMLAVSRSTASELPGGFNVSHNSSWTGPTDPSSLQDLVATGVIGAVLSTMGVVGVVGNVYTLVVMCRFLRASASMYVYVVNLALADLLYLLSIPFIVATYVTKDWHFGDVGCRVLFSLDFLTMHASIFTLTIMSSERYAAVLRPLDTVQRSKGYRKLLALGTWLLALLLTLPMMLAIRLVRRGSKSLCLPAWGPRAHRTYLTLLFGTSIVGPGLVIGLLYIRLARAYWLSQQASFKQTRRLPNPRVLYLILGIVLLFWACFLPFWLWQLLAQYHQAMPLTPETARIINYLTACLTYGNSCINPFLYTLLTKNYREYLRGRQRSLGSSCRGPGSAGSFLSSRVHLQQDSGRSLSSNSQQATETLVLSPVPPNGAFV
In short: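 Cloned mouse urotensin (mUR2) receptor membranes from Perkin Elmer Biosignal were immobilized in FlashPlate microplates using a proprietary coating. Each well got 19.5 μl buffer, then 0.5 μl of DMSO, reference ligand, or compound. Adding 5 μl of [125I]-Urotensin II, diluted to 5× final concentration in binding buffer, started binding. Plates were sealed with TopSeal-A and incubated 1 hour at room temperature in the dark. Wells were counted for 30 seconds each on a TopCount after a 60-second delay, and percentage inhibition was calculated.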

Human Melanocortin (MC4) = biological target: T5, Human Melanocortin (MC4) (Homo sapiens, UniProt P32245); test: Radioligand binding, human melanocortin MC4 membranes, FlashPlate, [125I]-NDP-αMSH; conditions: compound at 10 μM, [125I]-NDP-αMSH
T5 construct: purchased Perkin Elmer Biosignal
T5 sequence (P32245 whole entry): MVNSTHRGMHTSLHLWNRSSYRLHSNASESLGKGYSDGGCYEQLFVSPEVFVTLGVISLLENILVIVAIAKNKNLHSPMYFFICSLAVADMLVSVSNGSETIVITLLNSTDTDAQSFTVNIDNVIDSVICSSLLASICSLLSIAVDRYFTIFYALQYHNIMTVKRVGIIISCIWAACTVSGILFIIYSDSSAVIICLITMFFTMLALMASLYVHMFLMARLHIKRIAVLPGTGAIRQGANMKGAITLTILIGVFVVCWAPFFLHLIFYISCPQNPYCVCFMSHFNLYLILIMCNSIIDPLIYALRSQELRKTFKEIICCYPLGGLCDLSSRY
In short: as §1

Human melanocortin (MC5) = biological target: T6, Human melanocortin (MC5) (Homo sapiens, UniProt P33032); test: Radioligand binding, human melanocortin MC5 membranes, FlashPlate, [125I]-NDP-αMSH; conditions: compound at 10 μM, [125I]-NDP-αMSH
T6 construct: purchased Perkin Elmer Biosignal
T6 sequence (P33032 whole entry): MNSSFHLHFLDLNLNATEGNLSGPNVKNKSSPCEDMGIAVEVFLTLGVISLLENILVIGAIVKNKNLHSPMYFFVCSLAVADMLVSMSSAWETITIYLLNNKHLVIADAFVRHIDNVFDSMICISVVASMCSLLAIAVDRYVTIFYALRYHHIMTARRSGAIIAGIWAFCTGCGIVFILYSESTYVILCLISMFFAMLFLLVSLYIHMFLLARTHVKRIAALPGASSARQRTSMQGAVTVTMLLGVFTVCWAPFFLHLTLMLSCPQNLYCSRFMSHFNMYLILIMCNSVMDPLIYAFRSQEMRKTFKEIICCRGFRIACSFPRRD
In short: as §1

Human κ-Opioid (KOP) = biological target: T7, Human κ-Opioid (KOP) (Homo sapiens, UniProt P41145); test: Radioligand binding, human κ-opioid (KOP) membranes, filtration, [3H]-Diprenorphine; conditions: compound at 10 μM, [3H]-Diprenorphine
T7 construct: purchased Perkin Elmer Biosignal
T7 sequence (P41145 whole entry): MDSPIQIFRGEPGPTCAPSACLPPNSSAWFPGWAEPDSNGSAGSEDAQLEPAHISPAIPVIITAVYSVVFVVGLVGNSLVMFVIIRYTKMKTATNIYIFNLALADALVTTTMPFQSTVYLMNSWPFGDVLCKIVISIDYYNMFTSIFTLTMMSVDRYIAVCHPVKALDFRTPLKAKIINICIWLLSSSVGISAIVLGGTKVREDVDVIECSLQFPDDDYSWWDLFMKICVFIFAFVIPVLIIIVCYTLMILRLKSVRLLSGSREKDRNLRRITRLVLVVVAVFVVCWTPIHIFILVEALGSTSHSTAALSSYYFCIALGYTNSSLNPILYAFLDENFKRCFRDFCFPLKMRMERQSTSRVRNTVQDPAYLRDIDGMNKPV
In short: (§2)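 Membranes from cloned human receptors were incubated with compound and radioligand for 1 hour at room temperature. Bound ligand was collected on 0.3% PEI-soaked filters, washed with cold 50 mM Tris-HCl pH 7.4, and counted by scintillation. Percent inhibition was computed against DMSO totals and reference-ligand nonspecific wells.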

Human Melanocortin (MC3) = biological target: T8, Human Melanocortin (MC3) (Homo sapiens, UniProt P41968); test: Radioligand binding, human melanocortin MC3 membranes, FlashPlate, [125I]-NDP-αMSH; conditions: compound at 10 μM, [125I]-NDP-αMSH
T8 construct: purchased Perkin Elmer Biosignal
T8 sequence (P41968 whole entry): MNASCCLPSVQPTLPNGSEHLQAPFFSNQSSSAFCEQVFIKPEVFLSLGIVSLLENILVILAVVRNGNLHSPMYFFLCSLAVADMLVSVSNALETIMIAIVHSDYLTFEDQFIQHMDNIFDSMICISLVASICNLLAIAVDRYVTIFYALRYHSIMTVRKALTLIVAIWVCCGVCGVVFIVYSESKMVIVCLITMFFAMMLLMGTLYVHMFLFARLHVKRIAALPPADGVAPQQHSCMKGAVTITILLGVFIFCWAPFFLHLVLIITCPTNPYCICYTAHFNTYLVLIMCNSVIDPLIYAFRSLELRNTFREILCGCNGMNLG
In short: as §1

Human μ-opioid (MOP) = biological target: T9, Human μ-opioid (MOP) (Homo sapiens, UniProt P35372); test: Radioligand binding, human μ-opioid (MOP) membranes, FlashPlate, [3H]-Naloxone; conditions: compound at 10 μM, [3H]-Naloxone
T9 construct: purchased Perkin Elmer Biosignal
T9 sequence (P35372 whole entry): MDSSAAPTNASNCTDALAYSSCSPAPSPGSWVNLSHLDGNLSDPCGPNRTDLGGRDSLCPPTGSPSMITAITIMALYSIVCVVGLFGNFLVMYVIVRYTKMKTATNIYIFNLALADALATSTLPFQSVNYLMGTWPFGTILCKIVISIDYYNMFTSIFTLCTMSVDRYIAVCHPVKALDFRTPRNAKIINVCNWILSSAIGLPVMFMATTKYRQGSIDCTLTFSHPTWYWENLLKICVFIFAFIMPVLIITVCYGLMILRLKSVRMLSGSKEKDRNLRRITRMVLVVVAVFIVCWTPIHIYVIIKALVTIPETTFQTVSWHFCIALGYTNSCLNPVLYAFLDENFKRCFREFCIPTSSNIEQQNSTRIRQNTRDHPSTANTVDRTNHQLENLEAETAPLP
In short: as §1

Human neurokinin (NK1) = biological target: T10, Human neurokinin (NK1) (Homo sapiens, UniProt P25103); test: Radioligand binding, human neurokinin NK1 membranes, filtration, [125I]-Substance P; conditions: compound at 10 μM, [125I]-Substance P
T10 construct: purchased Perkin Elmer Biosignal
T10 sequence (P25103 whole entry): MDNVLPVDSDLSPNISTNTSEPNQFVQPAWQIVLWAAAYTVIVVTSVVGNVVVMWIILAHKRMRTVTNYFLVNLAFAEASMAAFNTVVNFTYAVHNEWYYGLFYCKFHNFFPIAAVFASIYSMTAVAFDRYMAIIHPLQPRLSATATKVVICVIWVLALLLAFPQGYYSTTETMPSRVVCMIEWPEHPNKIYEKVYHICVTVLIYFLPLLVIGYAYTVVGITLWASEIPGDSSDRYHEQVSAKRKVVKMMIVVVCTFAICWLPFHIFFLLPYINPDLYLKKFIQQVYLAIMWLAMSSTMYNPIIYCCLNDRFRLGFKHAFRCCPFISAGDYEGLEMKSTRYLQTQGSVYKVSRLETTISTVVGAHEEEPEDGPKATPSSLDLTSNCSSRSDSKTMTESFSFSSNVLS
In short: as §2

[2] = biological target: T11, Human melanin-concentrating hormone (MCH1) (Homo sapiens, UniProt Q99705); test: Radioligand binding, human melanin-concentrating hormone MCH1 membranes, FlashPlate, [125I]-S36057; conditions: compound at 10 μM
T11 construct: purchased Perkin Elmer Biosignal
T11 sequence (Q99705 whole entry): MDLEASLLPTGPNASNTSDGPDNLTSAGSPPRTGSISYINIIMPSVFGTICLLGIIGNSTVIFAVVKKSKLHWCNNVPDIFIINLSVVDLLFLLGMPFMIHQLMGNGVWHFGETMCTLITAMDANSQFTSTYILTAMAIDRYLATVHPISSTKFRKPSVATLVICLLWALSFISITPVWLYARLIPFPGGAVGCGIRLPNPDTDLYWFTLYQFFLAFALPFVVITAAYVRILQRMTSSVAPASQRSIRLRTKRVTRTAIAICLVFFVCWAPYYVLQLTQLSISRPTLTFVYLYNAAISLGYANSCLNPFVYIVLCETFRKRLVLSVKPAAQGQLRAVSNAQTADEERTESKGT
In short: as §1

[3] = [125I]-S36057, human MCH1 membranes

T1 sequence (P41146 whole entry): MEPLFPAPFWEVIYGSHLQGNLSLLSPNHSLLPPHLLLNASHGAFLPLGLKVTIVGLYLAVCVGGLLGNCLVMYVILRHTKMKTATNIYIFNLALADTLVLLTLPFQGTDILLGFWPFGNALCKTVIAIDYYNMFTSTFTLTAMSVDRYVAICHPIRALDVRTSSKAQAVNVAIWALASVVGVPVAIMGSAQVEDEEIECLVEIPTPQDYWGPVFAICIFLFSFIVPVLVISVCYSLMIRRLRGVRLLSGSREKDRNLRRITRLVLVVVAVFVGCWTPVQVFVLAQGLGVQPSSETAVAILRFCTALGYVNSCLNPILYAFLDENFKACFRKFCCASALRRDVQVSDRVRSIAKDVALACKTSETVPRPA

Compound | A10: inhibition of radioligand binding (Human opioid (ORL1); human ORL1 membranes) | A9: inhibition of radioligand binding ([1]; human NPY-Y1 membranes) | A1: inhibition of radioligand binding (Human δ-opioid (DOP); human DOP membranes) | A11: inhibition of radioligand binding (Mouse urotensin (mUR2); mouse mUR2 membranes) | A4: inhibition of radioligand binding (Human Melanocortin (MC4); human MC4 membranes) | A5: inhibition of radioligand binding (Human melanocortin (MC5); human MC5 membranes) | A2: inhibition of radioligand binding (Human κ-Opioid (KOP); human KOP membranes) | A3: inhibition of radioligand binding (Human Melanocortin (MC3); human MC3 membranes) | A7: inhibition of radioligand binding (Human μ-opioid (MOP); human MOP membranes) | A8: inhibition of radioligand binding (Human neurokinin (NK1); human NK1 membranes) | A6: inhibition of radioligand binding [2, 3] | A10: inhibition of radioligand binding (Human opioid (ORL1); FlashPlate) | A9: inhibition of radioligand binding ([1]; FlashPlate) | A1: inhibition of radioligand binding (Human δ-opioid (DOP); FlashPlate) | A11: inhibition of radioligand binding (Mouse urotensin (mUR2); FlashPlate) | A4: inhibition of radioligand binding (Human Melanocortin (MC4); FlashPlate) | A5: inhibition of radioligand binding (Human melanocortin (MC5); FlashPlate) | A2: inhibition of radioligand binding (Human κ-Opioid (KOP); filtration) | A3: inhibition of radioligand binding (Human Melanocortin (MC3); FlashPlate) | A7: inhibition of radioligand binding (Human μ-opioid (MOP); FlashPlate) | also measured
N=C(N)NCCC(=O)NC1C(OCc2ccc(-c3ccccc3)cc2)OC(COCc2ccc(Cl)cc2)C(O)C1OCc1ccc(-c2ccccc2)cc1 (centres unmarked) [compound 416] | + (“+” indicates greater than 50% inhibition at 10 μM) | − (“−” indicates less than 50% inhibition at 10 μM) | − (“−” indicates less than 50% inhibition at 10 μM) | − (“−” indicates less than 50% inhibition at 10 μM) | + (“+” indicates greater than 50% inhibition at 10 μM) | + (“+” indicates greater than 50% inhibition at 10 μM) | − (“−” indicates less than 50% inhibition at 10 μM) | + (“+” indicates greater than 50% inhibition at 10 μM) | − (“−” indicates less than 50% inhibition at 10 μM) | + (“+” indicates greater than 50% inhibition at 10 μM) | + (“+” indicates greater than 50% inhibition at 10 μM) | – | – | – | – | – | – | – | – | – | –
CSC1OC(COCc2ccc3ccccc3c2)C(O)C(OCc2ccccc2)C1NC(=O)CNC(=N)N (centres unmarked) [compound 260] | – | – | – | – | – | – | – | – | – | – | – | − (“−” indicates less than 50% inhibition at 10 μM) | − (“−” indicates less than 50% inhibition at 10 μM) | − (“−” indicates less than 50% inhibition at 10 μM) | − (“−” indicates less than 50% inhibition at 10 μM) | + (“+” indicates greater than 50% inhibition at 10 μM) | − (“−” indicates less than 50% inhibition at 10 μM) | − (“−” indicates less than 50% inhibition at 10 μM) | − (“−” indicates less than 50% inhibition at 10 μM) | − (“−” indicates less than 50% inhibition at 10 μM) | A8: inhibition of radioligand binding (Human neurokinin (NK1); filtration): − (“−” indicates less than 50% inhibition at 10 μM); A6: inhibition of radioligand binding ([2]; [125I]-S36057, FlashPlate): − (“−” indicates less than 50% inhibition at 10 μM)
COCC1OC(OCCc2ccccc2)C(NC(=O)CCN)C(OCc2ccccc2)C1O (centres unmarked) [compound 216] | – | – | – | – | – | – | – | – | – | – | – | − (“−” indicates less than 50% inhibition at 10 μM) | − (“−” indicates less than 50% inhibition at 10 μM) | − (“−” indicates less than 50% inhibition at 10 μM) | − (“−” indicates less than 50% inhibition at 10 μM) | − (“−” indicates less than 50% inhibition at 10 μM) | − (“−” indicates less than 50% inhibition at 10 μM) | − (“−” indicates less than 50% inhibition at 10 μM) | − (“−” indicates less than 50% inhibition at 10 μM) | − (“−” indicates less than 50% inhibition at 10 μM) | A8: inhibition of radioligand binding (Human neurokinin (NK1); filtration): + (“+” indicates greater than 50% inhibition at 10 μM); A6: inhibition of radioligand binding ([2]; [125I]-S36057, FlashPlate): − (“−” indicates less than 50% inhibition at 10 μM)
NCCC(=O)NC1C(OCc2ccc3ccccc3c2)OC(COCc2ccc(Cl)cc2)C(O)C1OCc1ccc(Cl)cc1 (centres unmarked) [compound 383] | − (“−” indicates less than 50% inhibition at 10 μM) | − (“−” indicates less than 50% inhibition at 10 μM) | − (“−” indicates less than 50% inhibition at 10 μM) | − (“−” indicates less than 50% inhibition at 10 μM) | + (“+” indicates greater than 50% inhibition at 10 μM) | + (“+” indicates greater than 50% inhibition at 10 μM) | − (“−” indicates less than 50% inhibition at 10 μM) | + (“+” indicates greater than 50% inhibition at 10 μM) | − (“−” indicates less than 50% inhibition at 10 μM) | + (“+” indicates greater than 50% inhibition at 10 μM) | − (“−” indicates less than 50% inhibition at 10 μM) | – | – | – | – | – | – | – | – | – | –
